Assay results published in patent US20250115557A1, “TOTAL SYNTHESES OF SELENONEINE, ISO-SELENONEINE, AND ISOMERS” (UNIVERSITÉ LAVAL, priority 2022, published 2025).
Like-named read-outs stand apart in the source and are kept apart here.

Columns and labels:
[1] = system: K562-S human leukemia cell line; assay: Preliminary experiments: concentration of toxicant decreasing cell survival by 50%; assay type: cell-based; settings: K562 cells
Description: (§1) In vitro protection assays against either methylmercury chloride (MeHgCl) or tert-butyl hydroperoxide (t-BuOOH) were conducted with the K562-S human leukemia cell line (REF #CRL-3343™) obtained from the American Type Culture Collection (ATCC). Cells were cultured in Gibco RPMI 1640 complete growth medium with L-Glutamine (REF #31800-105), NaHCO3 (2 g/L), 10% FBS (REF #080-750), 2% antibiotic-antimycotic from Gibco (REF #15240-062), pH 7.4, and maintained at 37° C. in a 5% CO2 incubator and protected from light.
(§2) An uptake induction step, in a saline buffer containing 125 mM of NaCl; 25 mM of HEPES-NaOH (pH 7.4); 5.6 mM of D(+)-glucose; 4.8 mM KCl; 1.2 mM of KH2PO4; 1.2 mM of CaCl2; and 1.2 mM of MgSO4, was performed prior to adding selenoneine or ergothioneine to the cell medium.^[22,23] Cells were resuspended in triplicate and pre-incubated in the saline buffer at a density of 2×10^6 cells/mL for 20 minutes at 37° C. under slight agitation. Cells were then incubated during 4 hours in the same buffer and conditions but supplemented with the protective agent of interest—either ergothioneine or selenoneine—in the presence of 0.15 mM of reduced glutathione (GSH). […] Results are expressed as the mean±standard error of the mean of triplicates. […]

[2] = system: human erythroid K562 cells; assay type: cell-based; settings: for Viability of cells exposed to t-BuOOH: 830 μM t-BuOOH 1 h, protective agent 2.5-150 μM, 4 h pre-incubation, FIG. 3
Description: (§3) Since selenoneine is the analog of the well-known natural antioxidant and cytoprotectant ergothioneine, its capacity as an antioxidant and cytoprotectant was assessed. To that effect, the capacity of selenoneine to protect cells against the cytotoxic effects induced by t-butyl hydroperoxide (t-BuOOH) and methylmercury chloride (MeHgCl) was assessed. Human erythroid K562 cells expressing the ergothioneine transporter (OCTN1) were exposed to the IC50 values of t-BuOOH and MeHgCl respectively, in the presence of increasing concentrations of either selenoneine or ergothioneine. The cell viability was subsequently assessed using the trypan blue viability exclusion test.^[20]
as §1
as §2, with “(GSH). Concentrations of protective agents, either ergothioneine or selenoneine, used for these experiments were 2.5, 5, 25, 50, 100, and 150 μM (FIGS. 3 and 4).” for “(GSH).”

[3] = system: human erythroid K562 cells; assay: Protection against MeHgCl induced cytotoxicity, trypan blue viability exclusion test; assay type: cell-based; settings: for Viability of cells exposed to MeHgCl: 5 μM MeHgCl overnight (18h), protective agent 2.5-150 μM, 4 h pre-incubation, FIG. 4
Description: as §3, §1
An uptake induction step, in a saline buffer containing 125 mM of NaCl; 25 mM of HEPES-NaOH (pH 7.4); 5.6 mM of D(+)-glucose; 4.8 mM KCl; 1.2 mM of KH2PO4; 1.2 mM of CaCl2; and 1.2 mM of MgSO4, was performed prior to adding selenoneine or ergothioneine to the cell medium.^[22,23] Cells were resuspended in triplicate and pre-incubated in the saline buffer at a density of 2×10^6 cells/mL for 20 minutes at 37° C. under slight agitation. Cells were then incubated during 4 hours in the same buffer and conditions but supplemented with the protective agent of interest—either ergothioneine or selenoneine—in the presence of 0.15 mM of reduced glutathione (GSH). Concentrations of protective agents, either ergothioneine or selenoneine, used for these experiments were 2.5, 5, 25, 50, 100, and 150 μM (FIGS. 3 and 4). Cells were then washed twice in cold phosphate-buffered saline (PBS) and resuspended in complete RPMI growth medium and divided into two groups at a density of 1×10^6 cells/mL. One group of cells remained untreated (control group) while the other group was treated with either 830 μM of t-BuOOH, or 5 μM of MeHgCl. These concentrations were determined to decrease cell survival by 50% in preliminary experiments (IC50 values). Cells were then incubated at 37° C. under slight agitation over a period of one (1) hour in the case of t-BuOOH, or overnight (18h) for MeHgCl. The cells were then washed twice in cold PBS before being resuspended in complete RPMI growth medium at a density of 5×10^5 cells/mL. The trypan blue viability exclusion test was then conducted using a Hausser Scientific™ Bright-Line™ Phase Hemacytometer. Viable cells (%)=[total number of viable cells per mL of aliquot/total number of cells per mL of aliquot]×100.^[20] Results are expressed as the mean±standard error of the mean of triplicates. These experiments were repeated twice, and similar results were obtained.

[4] = S at C-5 (ovothiols) versus S at C-2 (ergothioneine); cited from earlier work

SMILES: [CH3][Hg][Cl] [MeHgCl, methylmercury chloride]
- IC50 [1]: 5 µM

SMILES: C[N+](C)(C)[C@@H](Cc1c[nH]c(=S)[nH]1)C(=O)[O-] [ergothioneine]
- Viability of cells exposed to t-BuOOH [2]: increased with increasing concentrations
- Viability of cells exposed to MeHgCl [3]: increased with increasing concentrations
- Cell viability versus control groups at concentrations of 150 μM or higher ([3]; 5 μM MeHgCl, K562 cells, protective agent 150 μM or higher): did not result in cell viabilities comparable to those of the control groups
- pKa value [4]: 8.7

SMILES: C[N+](C)(C)[C@@H](Cc1c[nH]c(=[Se])[nH]1)C(=O)[O-] [selenoneine, (S)-3-(2-selenoxo-2,3-dihydro-1H-imidazol-4-yl)-2-(trimethylammonio) propanoate]
- Viability of cells exposed to t-BuOOH [2]: increased with increasing concentrations
- Concentration resulting in cell viabilities comparable to those of the control groups ([2]; 830 μM t-BuOOH, K562 cells): ≥ 100 µM
- Viability of cells exposed to MeHgCl [3]: increased with increasing concentrations
- Concentration resulting in cell viabilities comparable to those of the control groups ([3]; 5 μM MeHgCl, K562 cells): ≥ 100 µM
- Protective effect against MeHgCl induced cytotoxicity, comparison ([3]; 5 μM MeHgCl, K562 cells): greater protective effect relative to ergothioneine

SMILES: CC(C)(C)OO [t-BuOOH, t-butyl hydroperoxide]
- IC50 ([1]; Homo sapiens): 830 µM
